# Results reported in EP4786473A1, “PHARMACEUTICALLY ACCEPTABLE SALT AND CRYSTALLINE FORM OF QUINAZOLINE DERIVATIVE, AND USE THEREOF” (Jiangsu Hengrui Pharmaceuticals Co., Ltd., priority 2023, dated 2025).
# Read-outs that look alike come from different tables or passages of the source.
# Experiments:
# [1] = Long-term/accelerated stability; assay type: physicochemical
# [2] = Stability study under influencing factors; assay type: physicochemical
# Excerpt: The sampling and investigation period was 1 month.
# [3] = DVS (dynamic vapor sorption) hygroscopicity test; assay type: physicochemical
# Procedure: DVS refers to dynamic vapor sorption and is determined using SMS DVS Advantage at 25°C, with the humidity change of 50%-95%-0%-95%-50% and the stepping of 10% (5% for the last step) (the specific humidity range is determined in accordance with the corresponding plot, and the methods listed herein are those most commonly used), and the standard for determination is as follow: dm/dt is not more than 0.002%.
# 100 mg of the compound of formula 1 was dissolved in 1 mL of acetone to give a clear solution. An aqueous p-toluenesulfonic acid solution (97.10 µL, 2 M) was added to the resulting solution. The mixture was stirred and centrifuged. The resulting solid was collected and dried under vacuum to obtain a product. […] The p-toluenesulfonate ion content of the product was detected to be 22.63% by ion chromatography. […] Furthermore, the crystal form was re-detected and found to be unchanged following the DVS test.
# [4] = tested on: HER2 wild-type Ba/F3 cells; assay: Ba/F3 cell proliferation assay (HER2 wild-type); assay type: cell-based; settings: 72 hours, Celltiter-Glo
# Procedure: (§1) EGFR wild-type Ba/F3 cells in the logarithmic growth phase (Cobioer, Cat. No.: CBP73110) were seeded into 96-well plates at a density of 2.5 × 10^3 cells/100 uL of growth culture medium. HER2 wild-type Ba/F3 cells (Cobioer, Cat. No.: CBP73110) or HER2 A775_G776insYVMA mutant Ba/F3 cells (Cobioer, Cat. No.: CBP73184) in the logarithmic growth phase were seeded into 96-well plates at a density of 5 × 10^3 cells/100 uL of growth culture medium. The plates were incubated overnight in a 37°C cell incubator. The following day, the compound, which had been serially diluted 3-fold in growth culture medium, was added at 100 uL/well. All treatments were performed in triplicate. The plates were incubated in the 37°C cell incubator for another 72 hours. Celltiter-Glo Luminescent Cell Viability Assay was performed.
# (§2) The cell proliferation rate was calculated for each well according to the following formula: Proliferation (%) = (G3 - G0 mean value of test compound wells)/(G3 mean value - GO mean value of DMSO control wells)*100. Based on the proliferation rate corresponding to each gradient concentration well and concentration thereof, the gradient curve of cell proliferation was fitted using Prism Graphpad software, and the GI50 of the compound was calculated (GI50 is defined as the compound concentration required to achieve a 50% inhibition rate of cell proliferation).
# [5] = tested on: EGFR wild-type Ba/F3 cells; assay: Ba/F3 cell proliferation assay (EGFR wild-type); assay type: cell-based; settings: 72 hours, Celltiter-Glo
# Procedure: as §1, §2
# [6] = tested on: HER2 A775_G776insYVMA mutant Ba/F3 cells; assay: Ba/F3 cell proliferation assay (HER2 exon 20 YVMA insertion mutant); assay type: cell-based; settings: 72 hours, Celltiter-Glo; for GI50: read-out: HER2 A775_G776 ins YVMA/BaF 3 GI50
# Procedure: as §1, §2
# [7] = 75% RH, 1 month, open container
# [8] = 75% RH, 13 days, open container
# [9] = 92.5% RH, 1 month, open container
# [10] = 92.5% RH, 13 days, open container
# [11] = 4500 Lux, 1 month, open container
# [12] = 4500 Lux, 7 days, open container
# [13] = 4500 Lux, 13 days, open container
compound,measurement,setting,value
"C=CC(=O)N1[C@@H]2CC[C@H]1C[C@@H](Oc1ccc3ncnc(Nc4ccc(Oc5ccn6ncnc6c5)c(C)c4F)c3c1)C2 [Crystal form I of p-toluenesulfonate, 1-(endo-3-((4-((4-([1,2,4]triazolo[1,5-a]pyridin-7-yloxy)-2-fluoro-3-methylphenyl)amino)quinazolin-6-yl)oxy)-8-azabicyclo[3.2.1]oct-8-yl)prop-2-en-1-one]",Colour and trait,"[1]; 25°C/60% RH, 1 month",White powder
same,Purity%,"[1]; 25°C/60% RH, 1 month",99.7%
same,Salt form,"[1]; 25°C/60% RH, 1 month",Unchanged
same,Colour and trait,"[1]; 25°C/60% RH, 2 months",White powder
same,Purity%,"[1]; 25°C/60% RH, 2 months",99.7%
same,Salt form,"[1]; 25°C/60% RH, 2 months",Unchanged
same,Colour and trait,"[1]; 25°C/60% RH, 3 months",White powder
same,Purity%,"[1]; 25°C/60% RH, 3 months",99.7%
same,Salt form,"[1]; 25°C/60% RH, 3 months",Unchanged
same,Colour and trait,"[1]; 25°C/60% RH, 6 months",White powder
same,Purity%,"[1]; 25°C/60% RH, 6 months",99.7%
same,Salt form,"[1]; 25°C/60% RH, 6 months",Unchanged
same,Colour and trait,"[1]; 25°C/60% RH, 14 days",White powder
same,Purity%,"[1]; 25°C/60% RH, 14 days",99.7%
same,Salt form,"[1]; 25°C/60% RH, 14 days",Unchanged
same,Colour and trait,"[1]; 40°C/75% RH, 1 month",White powder
same,Purity%,"[1]; 40°C/75% RH, 1 month",99.7%
same,Salt form,"[1]; 40°C/75% RH, 1 month",Unchanged
same,Colour and trait,"[1]; 40°C/75% RH, 2 months",White powder
same,Purity%,"[1]; 40°C/75% RH, 2 months",99.7%
same,Salt form,"[1]; 40°C/75% RH, 2 months",Unchanged
same,Colour and trait,"[1]; 40°C/75% RH, 3 months",White powder
same,Purity%,"[1]; 40°C/75% RH, 3 months",99.7%
same,Salt form,"[1]; 40°C/75% RH, 3 months",Unchanged
same,Colour and trait,"[1]; 40°C/75% RH, 6 months",White powder
same,Purity%,"[1]; 40°C/75% RH, 6 months",99.7%
same,Salt form,"[1]; 40°C/75% RH, 6 months",Unchanged
same,Colour and trait,"[1]; 40°C/75% RH, 14 days",White powder
same,Purity%,"[1]; 40°C/75% RH, 14 days",99.6%
same,Salt form,"[1]; 40°C/75% RH, 14 days",Unchanged
same,Colour and trait,"[1]; Initial, 0 day",White powder
same,Purity%,"[1]; Initial, 0 day",99.7%
same,Salt form,"[1]; Initial, 0 day",Crystal form I of p-toluenesulfonate
same,Colour and trait,"[2]; 40°C, 1 month, open container",White powder
same,Purity%,"[2]; 40°C, 1 month, open container",95.2%
same,Salt form,"[2]; 40°C, 1 month, open container",Unchanged
same,Colour and trait,"[2]; 40°C, 7 days, open container",White powder
same,Purity%,"[2]; 40°C, 7 days, open container",98.7%
same,Salt form,"[2]; 40°C, 7 days, open container",Unchanged
same,Colour and trait,"[2]; 40°C, 13 days, open container",White powder
same,Purity%,"[2]; 40°C, 13 days, open container",97.6%
same,Salt form,"[2]; 40°C, 13 days, open container",Unchanged
same,Colour and trait,"[2]; 60°C, 1 month, open container",White powder
same,Purity%,"[2]; 60°C, 1 month, open container",94.9%
same,Salt form,"[2]; 60°C, 1 month, open container",Unchanged
same,Colour and trait,"[2]; 60°C, 7 days, open container",White powder
same,Purity%,"[2]; 60°C, 7 days, open container",98.7%
same,Salt form,"[2]; 60°C, 7 days, open container",Unchanged
same,Colour and trait,"[2]; 60°C, 13 days, open container",White powder
same,Purity%,"[2]; 60°C, 13 days, open container",97.8%
same,Salt form,"[2]; 60°C, 13 days, open container",Unchanged
same,Colour and trait,[2]; [7],White powder
same,Purity%,[2]; [7],99.7%
same,Salt form,[2]; [7],Unchanged
same,Colour and trait,[2]; [8],White powder
same,Purity%,[2]; [8],99.7%
same,Salt form,[2]; [8],Unchanged
same,Colour and trait,[2]; [9],White powder
same,Purity%,[2]; [9],99.7%
same,Salt form,[2]; [9],Unchanged
same,Colour and trait,[2]; [10],White powder
same,Purity%,[2]; [10],99.7%
same,Salt form,[2]; [10],Unchanged
same,Colour and trait,[2]; [11],White powder
same,Purity%,[2]; [11],99.1%
same,Salt form,[2]; [11],Unchanged
same,Colour and trait,[2]; [12],White powder
same,Purity%,[2]; [12],99.6%
same,Salt form,[2]; [12],Unchanged
same,Colour and trait,[2]; [13],White powder
same,Purity%,[2]; [13],99.5%
same,Salt form,[2]; [13],Unchanged
same,Colour and trait,"[2]; Initial, 0 day",White powder
same,Purity%,"[2]; Initial, 0 day",99.7%
same,Salt form,"[2]; Initial, 0 day",Crystal form I of p-toluenesulfonate
same,weight gain after moisture absorption,[3]; accelerated test conditions (70% RH),about 1.57%
same,crystal form re-detected following the DVS test,[3]; after DVS test,unchanged
same,weight gain after moisture absorption,[3]; extreme conditions (90% RH),about 2.21%
same,weight gain after moisture absorption,"[3]; normal storage conditions (25°C, 60% RH)",about 1.18%
"C=CC(=O)N1[C@@H]2CC[C@H]1C[C@@H](Oc1ccc3ncnc(Nc4ccc(Oc5ccn6ncnc6c5)c(C)c4F)c3c1)C2 [Example 1, 1-(endo-3-((4-((4-([1,2,4]triazolo[1,5-a]pyridin-7-yloxy)-2-fluoro-3-methylphenyl)amino)quinazolin-6-yl)oxy)-8-azabicyclo[3.2.1]oct-8-yl)prop-2-en-1-one]",HER2 WT/BaF 3 Imax %,[4],100%
same,GI50,[4]; read-out: HER2 WT/Ba F3 GI50,9.3 nM
same,EGFR WT/BaF 3 Imax %,[5],100%
same,GI50,[5]; read-out: EGFR WT/BaF3 GI50,2840 nM
same,HER2 A775_G77 6 ins YVMA/Ba F3 Imax %,[6],100%
same,GI50,[6],10.3 nM
"Cc1cc(Nc2ncnc3ccc(NC4=NC(C)(C)CO4)cc23)ccc1Oc1ccn2ncnc2c1 [Tucatinib, reference compound]",HER2 A775_G77 6 ins YVMA/Ba F3 Imax %,[6],100%
same,GI50,"[6]; Mus musculus, BaF3",309 nM
